Experimental findings from ChEMBL document CHEMBL3991601, “The target landscape of clinical kinase drugs” (Science, 2017) are described below.

As a reminder, the Kd is a measure of binding affinity in units of concentration.

The target in experiment [1] is Uncharacterized aarF domain-containing protein kinase 5 (Homo sapiens, UniProt Q3MIX3).
Experiment [2] has as its target Cyclin-dependent kinase 17 (Homo sapiens, UniProt Q00537).
The target in experiment [3] is Cyclin-dependent kinase 2 (Homo sapiens, UniProt P24941).
For experiment [4], the target named is T1, Eukaryotic translation initiation factor 5B (Homo sapiens, UniProt O60841).
T1 sequence (O60841 whole entry): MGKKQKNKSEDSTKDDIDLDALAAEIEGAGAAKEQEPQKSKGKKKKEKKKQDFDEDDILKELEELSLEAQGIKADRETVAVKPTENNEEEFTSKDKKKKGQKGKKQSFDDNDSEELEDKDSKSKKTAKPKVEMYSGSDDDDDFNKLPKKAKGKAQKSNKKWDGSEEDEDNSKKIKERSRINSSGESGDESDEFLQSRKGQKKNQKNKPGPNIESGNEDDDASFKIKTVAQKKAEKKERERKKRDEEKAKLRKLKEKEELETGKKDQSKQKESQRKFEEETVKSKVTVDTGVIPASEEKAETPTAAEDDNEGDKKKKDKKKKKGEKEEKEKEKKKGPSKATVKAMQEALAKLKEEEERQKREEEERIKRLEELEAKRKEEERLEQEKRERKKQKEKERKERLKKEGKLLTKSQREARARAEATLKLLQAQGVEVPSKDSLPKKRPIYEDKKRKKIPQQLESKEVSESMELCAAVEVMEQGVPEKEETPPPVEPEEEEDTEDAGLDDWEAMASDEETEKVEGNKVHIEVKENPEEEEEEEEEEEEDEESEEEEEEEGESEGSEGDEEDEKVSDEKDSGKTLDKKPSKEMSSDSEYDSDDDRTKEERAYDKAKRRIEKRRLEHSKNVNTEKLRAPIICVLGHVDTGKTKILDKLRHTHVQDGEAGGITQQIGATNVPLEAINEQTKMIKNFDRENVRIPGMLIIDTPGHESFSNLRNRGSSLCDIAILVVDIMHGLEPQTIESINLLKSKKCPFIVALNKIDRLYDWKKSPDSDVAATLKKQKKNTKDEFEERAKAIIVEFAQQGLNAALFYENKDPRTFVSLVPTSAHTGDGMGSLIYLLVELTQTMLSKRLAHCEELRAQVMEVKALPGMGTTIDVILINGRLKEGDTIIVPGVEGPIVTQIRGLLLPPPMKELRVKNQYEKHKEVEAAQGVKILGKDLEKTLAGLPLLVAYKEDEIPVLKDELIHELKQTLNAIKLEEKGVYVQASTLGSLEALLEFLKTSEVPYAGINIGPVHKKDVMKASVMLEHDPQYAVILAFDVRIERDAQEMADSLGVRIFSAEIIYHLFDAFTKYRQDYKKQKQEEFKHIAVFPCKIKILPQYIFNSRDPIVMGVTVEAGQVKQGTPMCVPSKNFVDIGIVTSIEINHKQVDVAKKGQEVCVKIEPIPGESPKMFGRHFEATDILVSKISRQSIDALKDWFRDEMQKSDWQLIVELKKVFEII

The next experiment concerns the target Myosin-10 (Homo sapiens, UniProt P35580).
Experiment [5] has as its target Serine/threonine-protein kinase PAK 6 (Homo sapiens, UniProt Q9NQU5).
The target of experiment [6] is PAS domain-containing serine/threonine-protein kinase (Homo sapiens, UniProt Q96RG2).
The target in experiment [7] is Serine/threonine-protein kinase pim-2 (Homo sapiens, UniProt Q9P1W9).
Experiment [8] deals with Serine/threonine-protein kinase N3 (Homo sapiens, UniProt Q6P5Z2).
Experiment [9] deals with T2, Isoleucine--tRNA ligase, mitochondrial (Homo sapiens, UniProt Q9NSE4).
T2 sequence (Q9NSE4 whole entry): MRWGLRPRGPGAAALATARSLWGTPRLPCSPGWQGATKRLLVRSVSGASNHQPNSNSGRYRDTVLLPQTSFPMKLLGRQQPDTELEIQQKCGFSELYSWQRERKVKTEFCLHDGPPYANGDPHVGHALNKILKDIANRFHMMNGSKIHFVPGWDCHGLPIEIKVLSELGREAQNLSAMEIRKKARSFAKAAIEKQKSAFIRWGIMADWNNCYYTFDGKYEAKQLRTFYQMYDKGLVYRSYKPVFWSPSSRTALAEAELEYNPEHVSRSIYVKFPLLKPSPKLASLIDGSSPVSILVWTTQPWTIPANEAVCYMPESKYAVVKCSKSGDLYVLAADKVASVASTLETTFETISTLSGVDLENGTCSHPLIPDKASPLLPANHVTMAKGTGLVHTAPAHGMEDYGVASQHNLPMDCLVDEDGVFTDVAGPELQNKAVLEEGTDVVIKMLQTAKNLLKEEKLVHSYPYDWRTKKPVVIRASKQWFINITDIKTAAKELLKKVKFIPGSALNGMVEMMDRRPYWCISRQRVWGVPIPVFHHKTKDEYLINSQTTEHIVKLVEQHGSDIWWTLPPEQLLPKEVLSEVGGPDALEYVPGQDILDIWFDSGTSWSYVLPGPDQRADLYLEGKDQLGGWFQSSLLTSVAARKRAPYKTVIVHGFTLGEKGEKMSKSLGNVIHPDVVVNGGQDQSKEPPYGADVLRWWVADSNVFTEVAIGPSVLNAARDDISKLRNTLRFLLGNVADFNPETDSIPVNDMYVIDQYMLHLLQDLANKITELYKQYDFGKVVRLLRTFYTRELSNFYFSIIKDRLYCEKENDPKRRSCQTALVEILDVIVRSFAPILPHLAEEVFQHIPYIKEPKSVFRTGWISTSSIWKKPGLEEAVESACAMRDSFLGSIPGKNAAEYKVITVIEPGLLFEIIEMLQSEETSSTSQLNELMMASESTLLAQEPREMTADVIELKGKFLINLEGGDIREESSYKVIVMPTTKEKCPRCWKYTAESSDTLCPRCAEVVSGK

The source made the active and inactive calls.
Note: in the data inactive means no Kd found up to 30 µM.

Sequence of Serine/threonine-protein kinase N3 (Q6P5Z2 whole entry): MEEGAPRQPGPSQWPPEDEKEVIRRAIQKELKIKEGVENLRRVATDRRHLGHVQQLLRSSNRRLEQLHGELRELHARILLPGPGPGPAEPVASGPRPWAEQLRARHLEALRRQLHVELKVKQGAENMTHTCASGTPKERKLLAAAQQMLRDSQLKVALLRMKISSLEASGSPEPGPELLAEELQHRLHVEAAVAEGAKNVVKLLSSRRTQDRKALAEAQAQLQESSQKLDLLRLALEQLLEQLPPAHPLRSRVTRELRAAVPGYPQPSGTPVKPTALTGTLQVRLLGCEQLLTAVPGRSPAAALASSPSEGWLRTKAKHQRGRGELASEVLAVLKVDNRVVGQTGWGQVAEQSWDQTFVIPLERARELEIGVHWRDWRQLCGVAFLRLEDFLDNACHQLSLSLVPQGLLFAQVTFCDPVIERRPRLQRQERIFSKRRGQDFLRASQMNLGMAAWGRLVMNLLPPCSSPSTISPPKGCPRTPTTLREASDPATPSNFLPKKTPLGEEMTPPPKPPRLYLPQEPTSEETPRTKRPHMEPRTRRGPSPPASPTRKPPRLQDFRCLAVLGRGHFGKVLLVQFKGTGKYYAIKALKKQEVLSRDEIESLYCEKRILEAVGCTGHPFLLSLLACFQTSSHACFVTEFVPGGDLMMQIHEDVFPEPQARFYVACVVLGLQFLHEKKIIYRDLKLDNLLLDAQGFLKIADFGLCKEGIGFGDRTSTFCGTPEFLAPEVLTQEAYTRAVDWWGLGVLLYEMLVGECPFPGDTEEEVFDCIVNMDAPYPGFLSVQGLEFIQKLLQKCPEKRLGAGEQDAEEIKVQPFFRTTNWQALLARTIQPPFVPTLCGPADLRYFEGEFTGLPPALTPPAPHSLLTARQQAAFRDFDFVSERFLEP
Sequence of Myosin-10 (P35580 whole entry): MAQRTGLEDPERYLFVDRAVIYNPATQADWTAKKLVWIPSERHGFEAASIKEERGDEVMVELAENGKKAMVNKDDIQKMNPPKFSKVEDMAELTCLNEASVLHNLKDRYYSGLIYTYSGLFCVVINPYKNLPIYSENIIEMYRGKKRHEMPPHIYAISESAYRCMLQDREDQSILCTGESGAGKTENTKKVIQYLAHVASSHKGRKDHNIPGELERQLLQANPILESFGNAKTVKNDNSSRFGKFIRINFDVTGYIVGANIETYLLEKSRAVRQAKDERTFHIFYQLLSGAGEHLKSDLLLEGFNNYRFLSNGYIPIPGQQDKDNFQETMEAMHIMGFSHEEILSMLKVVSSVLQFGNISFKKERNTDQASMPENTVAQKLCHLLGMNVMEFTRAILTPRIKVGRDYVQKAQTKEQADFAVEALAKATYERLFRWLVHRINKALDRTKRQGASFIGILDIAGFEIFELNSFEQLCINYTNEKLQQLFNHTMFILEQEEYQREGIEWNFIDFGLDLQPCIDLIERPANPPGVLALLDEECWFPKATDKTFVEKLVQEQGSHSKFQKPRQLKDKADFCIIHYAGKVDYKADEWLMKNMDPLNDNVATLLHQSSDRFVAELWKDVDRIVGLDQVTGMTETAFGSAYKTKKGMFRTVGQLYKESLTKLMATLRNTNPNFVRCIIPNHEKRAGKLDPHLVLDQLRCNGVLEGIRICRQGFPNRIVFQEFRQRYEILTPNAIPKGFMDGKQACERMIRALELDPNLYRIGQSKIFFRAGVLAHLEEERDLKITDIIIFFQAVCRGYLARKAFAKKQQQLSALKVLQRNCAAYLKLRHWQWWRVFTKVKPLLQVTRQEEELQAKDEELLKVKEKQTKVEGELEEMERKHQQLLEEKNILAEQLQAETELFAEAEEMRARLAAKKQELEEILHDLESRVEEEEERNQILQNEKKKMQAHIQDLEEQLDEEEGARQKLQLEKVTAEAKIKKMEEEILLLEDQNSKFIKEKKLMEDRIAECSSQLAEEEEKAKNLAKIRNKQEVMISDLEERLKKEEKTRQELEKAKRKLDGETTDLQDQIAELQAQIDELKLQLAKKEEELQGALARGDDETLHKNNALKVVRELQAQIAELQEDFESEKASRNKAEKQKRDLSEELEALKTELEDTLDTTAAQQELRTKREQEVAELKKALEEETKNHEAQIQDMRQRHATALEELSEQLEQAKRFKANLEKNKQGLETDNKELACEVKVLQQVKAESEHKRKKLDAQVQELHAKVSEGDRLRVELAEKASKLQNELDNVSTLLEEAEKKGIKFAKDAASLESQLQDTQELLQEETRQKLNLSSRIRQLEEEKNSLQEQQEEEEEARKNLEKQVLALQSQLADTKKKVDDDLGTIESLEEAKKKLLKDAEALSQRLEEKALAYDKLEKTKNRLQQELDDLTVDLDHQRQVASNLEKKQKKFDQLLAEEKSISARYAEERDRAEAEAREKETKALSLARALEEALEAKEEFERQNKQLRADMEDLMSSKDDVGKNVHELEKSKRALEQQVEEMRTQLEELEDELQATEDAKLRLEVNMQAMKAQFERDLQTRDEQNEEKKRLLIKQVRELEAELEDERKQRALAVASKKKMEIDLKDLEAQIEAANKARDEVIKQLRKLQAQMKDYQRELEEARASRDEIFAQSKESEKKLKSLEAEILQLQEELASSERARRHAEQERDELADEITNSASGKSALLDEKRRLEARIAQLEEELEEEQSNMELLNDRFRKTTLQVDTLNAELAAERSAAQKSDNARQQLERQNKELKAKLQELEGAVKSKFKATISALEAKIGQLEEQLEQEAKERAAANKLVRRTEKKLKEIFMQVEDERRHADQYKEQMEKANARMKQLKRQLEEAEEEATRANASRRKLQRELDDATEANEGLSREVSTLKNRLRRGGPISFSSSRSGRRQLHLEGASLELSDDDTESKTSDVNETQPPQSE
Sequence of Serine/threonine-protein kinase pim-2 (Q9P1W9 whole entry): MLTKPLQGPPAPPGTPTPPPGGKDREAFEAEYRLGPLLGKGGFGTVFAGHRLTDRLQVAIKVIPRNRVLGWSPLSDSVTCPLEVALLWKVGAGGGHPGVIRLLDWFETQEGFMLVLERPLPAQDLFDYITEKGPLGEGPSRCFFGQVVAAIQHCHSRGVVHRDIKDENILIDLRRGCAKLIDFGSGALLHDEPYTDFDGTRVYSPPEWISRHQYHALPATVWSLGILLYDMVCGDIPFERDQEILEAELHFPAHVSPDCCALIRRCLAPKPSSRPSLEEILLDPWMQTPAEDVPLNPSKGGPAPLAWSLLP
Sequence of Uncharacterized aarF domain-containing protein kinase 5 (Q3MIX3 whole entry, the tested form may be a part): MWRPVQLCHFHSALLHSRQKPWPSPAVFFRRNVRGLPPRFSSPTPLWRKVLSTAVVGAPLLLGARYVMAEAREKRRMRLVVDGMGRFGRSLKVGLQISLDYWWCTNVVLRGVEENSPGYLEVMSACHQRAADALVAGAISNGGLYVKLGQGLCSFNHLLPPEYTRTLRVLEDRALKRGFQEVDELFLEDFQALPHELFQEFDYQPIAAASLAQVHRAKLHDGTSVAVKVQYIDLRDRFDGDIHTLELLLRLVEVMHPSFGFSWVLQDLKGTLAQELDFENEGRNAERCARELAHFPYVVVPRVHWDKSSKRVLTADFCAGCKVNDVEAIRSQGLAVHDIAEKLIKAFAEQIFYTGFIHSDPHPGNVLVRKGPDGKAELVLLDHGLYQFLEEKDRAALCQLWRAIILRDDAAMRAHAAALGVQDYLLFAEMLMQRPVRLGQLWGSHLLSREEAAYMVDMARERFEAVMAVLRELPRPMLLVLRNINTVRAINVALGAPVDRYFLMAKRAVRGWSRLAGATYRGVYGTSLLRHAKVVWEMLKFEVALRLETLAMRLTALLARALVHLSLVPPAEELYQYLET
Sequence of Serine/threonine-protein kinase PAK 6 (Q9NQU5 whole entry, the tested form may be a part): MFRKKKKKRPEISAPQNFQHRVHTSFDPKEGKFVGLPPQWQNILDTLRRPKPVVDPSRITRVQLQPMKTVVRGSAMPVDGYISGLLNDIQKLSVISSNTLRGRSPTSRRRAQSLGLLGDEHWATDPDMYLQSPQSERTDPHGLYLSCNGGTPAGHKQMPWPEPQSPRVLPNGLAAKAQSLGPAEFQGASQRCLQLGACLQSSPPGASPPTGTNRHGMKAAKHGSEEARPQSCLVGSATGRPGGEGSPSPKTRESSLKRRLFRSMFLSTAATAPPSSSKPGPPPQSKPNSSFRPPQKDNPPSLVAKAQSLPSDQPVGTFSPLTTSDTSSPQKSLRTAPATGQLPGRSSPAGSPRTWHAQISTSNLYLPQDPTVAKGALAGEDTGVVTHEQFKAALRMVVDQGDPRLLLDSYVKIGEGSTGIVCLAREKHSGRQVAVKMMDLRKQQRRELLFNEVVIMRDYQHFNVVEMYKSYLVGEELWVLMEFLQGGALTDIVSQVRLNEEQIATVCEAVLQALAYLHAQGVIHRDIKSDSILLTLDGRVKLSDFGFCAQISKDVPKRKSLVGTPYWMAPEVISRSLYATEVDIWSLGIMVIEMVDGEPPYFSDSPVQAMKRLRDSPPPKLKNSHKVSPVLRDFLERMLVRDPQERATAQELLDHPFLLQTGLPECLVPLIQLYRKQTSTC
Sequence of Cyclin-dependent kinase 17 (Q00537 whole entry): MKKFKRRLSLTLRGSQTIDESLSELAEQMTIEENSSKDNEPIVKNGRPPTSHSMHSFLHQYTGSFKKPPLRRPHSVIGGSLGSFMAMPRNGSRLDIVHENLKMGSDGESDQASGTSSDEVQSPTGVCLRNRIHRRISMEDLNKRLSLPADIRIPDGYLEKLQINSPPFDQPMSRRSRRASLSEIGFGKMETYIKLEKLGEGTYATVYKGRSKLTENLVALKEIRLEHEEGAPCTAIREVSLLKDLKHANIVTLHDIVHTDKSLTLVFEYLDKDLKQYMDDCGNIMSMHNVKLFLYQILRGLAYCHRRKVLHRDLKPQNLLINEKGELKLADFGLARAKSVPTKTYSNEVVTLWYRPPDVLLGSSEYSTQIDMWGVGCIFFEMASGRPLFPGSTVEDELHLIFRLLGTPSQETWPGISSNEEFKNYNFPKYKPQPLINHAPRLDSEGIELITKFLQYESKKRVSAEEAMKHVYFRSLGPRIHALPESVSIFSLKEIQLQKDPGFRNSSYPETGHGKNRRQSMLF

Regarding `COc1cc(OC)c(/C=C/S(=O)(=O)Cc2ccc(OC)c(NCC(=O)O)c2)c(OC)c1` [RIGOSERTIB], the Kd (in [1]; in [2]; in [3]; in [4]; on Myosin-10; in experiment [5]) was > 30 µM (inactive) each time. Moreover, the Kd in experiment [6], in [7] and in experiment [8] was > 30 µM (inactive) throughout.
`CNC(=O)CN1CCC(Oc2cc3c(Nc4cccc(Cl)c4F)ncnc3cc2OC)CC1` [SAPITINIB]: the Kd in experiment [1], in experiment [2], in experiment [3], in [4], in experiment [5] and in experiment [6] was > 30 µM (inactive) throughout. The Kd in experiment [7] and in experiment [8] was > 30 µM (inactive) in each case.
As to `CNS(=O)(=O)Nc1nccc(Cc2c(C)c3ccc(Oc4ncccn4)cc3oc2=O)c1F` [AVUTOMETINIB], the Kd (in experiment [1]; in experiment [2]; in experiment [3]; in experiment [4]; at Myosin-10; in experiment [6]) was > 30 µM (inactive) in each case. Further, the Kd in experiment [7] and in experiment [8] was > 30 µM (inactive) in each case.
For the compound `COc1cc(N2CCC(N3CCN(C)CC3)CC2)ccc1Nc1ncnc(Nc2ccccc2S(=O)(=O)C(C)C)n1` [ASP-3026], the Kd in [1], in experiment [2], in experiment [3], in [4], in experiment [5] and in experiment [7] was > 30 µM (inactive) in each case.
On to `Cn1ncc(Cl)c1-c1cc(C(=O)N[C@H](CN)Cc2cccc(F)c2)sc1Cl` [AFURESERTIB], for which the Kd in experiment [2], in experiment [3], in [4], in experiment [5] and in [7] was > 30 µM (inactive) in each case.
Take `COC(=O)[C@@]1(O)C[C@H]2O[C@]1(C)n1c3ccccc3c3c4c(c5c6ccccc6n2c5c31)C(=O)NC4` [K-252A]: the Kd in [1], in experiment [2], in experiment [4], in experiment [5], in experiment [7] and in experiment [8] was > 30 µM (inactive) each time.
Take `Cn1cc(-c2ccc3nnc(C(F)(F)c4ccc5ncccc5c4)n3n2)cn1` [JNJ-38877605]: the Kd (in [1]; in experiment [2]; in experiment [3]; in experiment [4]; on Myosin-10; in experiment [5]) was > 30 µM (inactive) each time. Moreover, the Kd in [6], in experiment [7] and in experiment [8] was > 30 µM (inactive) each time.
For the compound `COc1cc(CCc2cc(NC(=O)c3ccc(N4C[C@@H](C)N[C@@H](C)C4)cc3)n[nH]2)cc(OC)c1` [AZD-4547], the Kd (in experiment [1]; in [2]; in experiment [4]; at Myosin-10; in experiment [5]; in experiment [6]) was > 30 µM (inactive) throughout. In addition, the Kd in experiment [7] and in experiment [8] was > 30 µM (inactive) throughout.
Turning to `CN1CC[C@@H](c2c(O)cc(O)c3c(=O)cc(-c4ccccc4Cl)oc23)[C@@H]1CO`, the Kd in experiment [2], in experiment [3], in experiment [4], in experiment [9], in experiment [5] and in experiment [6] was > 30 µM (inactive) in each case. For the same compound, the Kd in experiment [7] and in experiment [8] was > 30 µM (inactive) each time.
On to `CCN1CCN(Cc2ccc(-c3cc4c(N[C@H](C)c5ccccc5)ncnc4[nH]3)cc2)CC1` [AEE-788], for which the Kd in experiment [1], in experiment [2], in [3], in [4], in experiment [5] and in experiment [6] was > 30 µM (inactive) throughout. Further, the Kd in [7] is > 30 µM (inactive).
As to `Cc1cc2c(F)c(Oc3ncnn4cc(OC[C@@H](C)OC(=O)[C@H](C)N)c(C)c34)ccc2[nH]1` [BRIVANIB ALANINATE], the Kd (in experiment [1]; in experiment [2]; in [3]; at Myosin-10; in experiment [5]; in [6]) was > 30 µM (inactive) throughout. Besides, the Kd in experiment [7] and in experiment [8] was > 30 µM (inactive) each time.
For the compound `CNC(=O)c1cc(Oc2ccc(NC(=O)Nc3ccc(Cl)c(C(F)(F)F)c3)c(F)c2)ccn1` [REGORAFENIB], the Kd in [2] was 0.719 µM (active); in experiment [3], > 30 µM (inactive); in [4], > 30 µM (inactive); in [9] it was > 30 µM (inactive); at Myosin-10, > 30 µM (inactive); in [6], > 30 µM (inactive). Moreover, the Kd in experiment [7] and in experiment [8] was > 30 µM (inactive) in each case.
Take `Cc1cc(-c2cc(O)ccc2Cl)cc2nnc(Nc3ccc(OCCN4CCCC4)cc3)nc12`: the Kd (in [1]; in [2]; in [3]; on Myosin-10; in experiment [5]; in experiment [6]) was > 30 µM (inactive) each time. In addition, the Kd in experiment [7] and in [8] was > 30 µM (inactive) each time.
Turning to `CN(C)C(=O)c1cc2cnc(Nc3ccc(N4CCNCC4)cn3)nc2n1C1CCCC1` [RIBOCICLIB], the Kd in [1], in [4], in experiment [9], in experiment [6] and in experiment [7] was > 30 µM (inactive) each time.
